Laboratory results from patent US11185074B2, “Microbiocidal quinoline (thio)carboxamide derivatives” (SYNGENTA PARTICIPATIONS AG, priority 2017, dated 2021).
Where two headings read alike, the source gives them in different places.

How the values were obtained:
[1] = system: Glomerella lagenarium (Colletotrichum lagenarium); test: Glomerella lagenarium (Colletotrichum lagenarium) / liquid culture (anthracnose); type: cell-based; conditions: Colletotrichum orbiculare, read-out: control of Glomerella lagenarium
Fusarium culmorum [2] = test: microbe, parasite or virus in culture; type: cell-based; conditions: read-out: control of Fusarium culmorum
[3] = system: Botryotinia fuckeliana (Botrytis cinerea); test: Botryotinia fuckeliana (Botrytis cinerea) / liquid culture (gray mould); type: cell-based; conditions: 72 h, read-out: control of Botryotinia fuckeliana
[4] = system: Monographella nivalis (Microdochium nivale); test: Monographella nivalis (Microdochium nivale) / liquid culture (foot rot cereals); type: cell-based; conditions: 96 h, inhibition of growth photometrically 4-5 days after application, compared to untreated control
[5] = system: Magnaporthe grisea (Pyricularia oryzae); test: microbe, parasite or virus in culture; type: cell-based; conditions: 72 h, read-out: control of Magnaporthe grisea
Sclerotinia sclerotiorum = Sclerotinia sclerotiorum / liquid culture (cottony rot); conditions: 72 h, read-out: control of Sclerotinia sclerotiorum
Protocol: Sclerotinia sclerotiorum/Liquid Culture (Cottony Rot)
Mycelia fragments of a newly grown liquid culture of the fungus are directly mixed into nutrient broth (Vogels broth). After placing a (DMSO) solution of test compound into a microtiter plate (96-well format) the nutrient broth containing the fungal material is added. The test plates are incubated at 24° C. and the inhibition of growth is determined photometrically 3-4 days after application.

Fusarium culmorum [6] = test: whole plant or invertebrate; type: in vivo, Fusarium culmorum on wheat spikelets cv. Monsun; conditions: in Triticum aestivum, read-out: control of Fusarium culmorum
[7] = 20 ppm, liquid culture, inhibition of growth photometrically 3-4 days after application, compared to untreated control

C=CCC(C)(C)NC(=O)c1cnc2c(F)c(F)ccc2c1 [E-36]
116 to 119 °C: melting point
≥ 80%: inhibition of growth at 20 ppm [1, 7] | inhibition of growth at 20 ppm (Fusarium culmorum [2]) | inhibition of growth at 20 ppm [3, 7]

CC(C)(NC(=O)c1cnc2c(F)cccc2c1)C1CCCCC1 [E-7]
≥ 80%: inhibition of growth at 20 ppm [1, 7] | inhibition of growth at 20 ppm [4] | inhibition of growth at 20 ppm (Fusarium culmorum [2]) | inhibition of growth at 20 ppm [3, 7]

C/C(=C\c1ccccc1)CC(C)(C)NC(=O)c1cc2cccc(F)c2nc1C
108 to 110 °C: melting point

CC(C)CC(C)(C#N)NC(=O)c1cnc2c(F)cccc2c1 (stereo not shown) [E-35]
167 to 171 °C: melting point
≥ 80%: inhibition of growth at 20 ppm (Fusarium culmorum [2])

Cc1cccc2cc(C(=O)NC(C)(CC3CC=CCC3)CC(F)(F)F)cnc12 (stereo not shown) [E-53]
≥ 80%: inhibition of growth at 20 ppm [5] | inhibition of growth at 20 ppm [1, 7] | inhibition of growth at 20 ppm (Sclerotinia sclerotiorum) | inhibition of growth at 20 ppm [4] | inhibition of growth at 20 ppm (Fusarium culmorum [2]) | inhibition of growth at 20 ppm [3, 7]
112 to 114 °C: melting point

CC(C)(C/C=C/c1ccccc1)NC(=O)c1cnc2c(F)c(F)ccc2c1 [E-34]
≥ 80%: inhibition of growth at 20 ppm [4] | inhibition of growth at 20 ppm (Fusarium culmorum [2]) | inhibition of growth at 20 ppm [3, 7]

CC(C)=C(F)CC(C)(CC(C)C)NC(=O)c1cnc2ccccc2c1 (stereo not shown) [E-19]
≥ 80%: inhibition of growth at 20 ppm [5] | inhibition of growth at 20 ppm [1, 7] | pest or weed control at 200 ppm (Fusarium culmorum [6]) | inhibition of growth at 20 ppm (Fusarium culmorum [2]) | inhibition of growth at 20 ppm [3, 7]
95 to 97 °C: melting point

CCC(CC)CC(C)NC(=O)c1cnc2ccccc2c1 (stereo not shown) [E-38]
≥ 80%: inhibition of growth at 20 ppm [1, 7] | inhibition of growth at 20 ppm [4] | inhibition of growth at 20 ppm (Fusarium culmorum [2]) | inhibition of growth at 20 ppm [3, 7]

CC(C)CC=CCC(C)(C)NC(=O)c1cnc2c(F)c(F)ccc2c1 [E-33]
≥ 80%: inhibition of growth at 20 ppm [1, 7] | inhibition of growth at 20 ppm [4] | inhibition of growth at 20 ppm (Fusarium culmorum [2]) | inhibition of growth at 20 ppm [3, 7]

CC(CC1CC1)(CC1CC1)NC(=O)c1cnc2ccccc2c1 [E-26]
92 to 94 °C: melting point
≥ 80%: inhibition of growth at 20 ppm [1, 7] | pest or weed control at 200 ppm (Fusarium culmorum [6]) | inhibition of growth at 20 ppm [4] | inhibition of growth at 20 ppm (Fusarium culmorum [2]) | inhibition of growth at 20 ppm [3, 7]

COc1ccc(CCC(C)(C#N)NC(=O)c2cnc3c(F)cccc3c2)cc1 (stereo not shown) [E-30]
175 to 176 °C: melting point
≥ 80%: inhibition of growth at 20 ppm [1, 7] | inhibition of growth at 20 ppm (Fusarium culmorum [2])

CCCC(C)CC(C)NC(=O)c1cnc2ccccc2c1 (stereo not shown) [E-41]
≥ 80%: inhibition of growth at 20 ppm [1, 7] | inhibition of growth at 20 ppm (Fusarium culmorum [2]) | inhibition of growth at 20 ppm [3, 7]

CCC(CC)CC(C)NC(=O)c1cnc2c(F)cccc2c1 (stereo not shown) [E-40]
≥ 80%: inhibition of growth at 20 ppm [1, 7] | inhibition of growth at 20 ppm [4] | inhibition of growth at 20 ppm (Fusarium culmorum [2]) | inhibition of growth at 20 ppm [3, 7]

CC(CC1CCCCC1)(CC(F)(F)F)NC(=O)c1cnc2ccccc2c1 (stereo not shown) [E-60]
≥ 80%: inhibition of growth at 20 ppm [5] | inhibition of growth at 20 ppm [1, 7] | pest or weed control at 200 ppm (Fusarium culmorum [6]) | inhibition of growth at 20 ppm [4] | inhibition of growth at 20 ppm (Fusarium culmorum [2]) | inhibition of growth at 20 ppm [3, 7]
70 to 87 °C: melting point

CC(C)CC(C)(CC(C)C)NC(=O)c1cnc2c(F)cccc2c1 [E-4]
≥ 80%: inhibition of growth at 20 ppm [5] | inhibition of growth at 20 ppm [1, 7] | inhibition of growth at 20 ppm (Sclerotinia sclerotiorum) | inhibition of growth at 20 ppm (Fusarium culmorum [2]) | inhibition of growth at 20 ppm [3, 7]
139 to 142 °C: melting point

CCCC(C)CC(C)(CC(F)(F)F)NC(=O)c1cnc2c(F)cccc2c1 (stereo not shown) [E-52]
≥ 80%: inhibition of growth at 20 ppm [5] | inhibition of growth at 20 ppm [1, 7] | pest or weed control at 200 ppm (Fusarium culmorum [6]) | inhibition of growth at 20 ppm [4] | inhibition of growth at 20 ppm (Fusarium culmorum [2]) | inhibition of growth at 20 ppm [3, 7]

CC(C)CC(C)(CCc1ccccc1)NC(=O)c1cnc2c(F)cccc2c1 (stereo not shown) [E-8]
170 to 175 °C: melting point
≥ 80%: inhibition of growth at 20 ppm [5] | inhibition of growth at 20 ppm [1, 7] | inhibition of growth at 20 ppm (Sclerotinia sclerotiorum) | inhibition of growth at 20 ppm [4] | inhibition of growth at 20 ppm (Fusarium culmorum [2]) | inhibition of growth at 20 ppm [3, 7]

CCC(CC)CC(C)NC(=O)c1cnc2c(C)cccc2c1 (stereo not shown) [E-39]
≥ 80%: inhibition of growth at 20 ppm [1, 7] | inhibition of growth at 20 ppm (Fusarium culmorum [2]) | inhibition of growth at 20 ppm [3, 7]

C=C(C)CC(C)(CC(C)C)NC(=O)c1cnc2ccccc2c1 (stereo not shown) [E-12]
89 to 91 °C: melting point
≥ 80%: inhibition of growth at 20 ppm [5] | inhibition of growth at 20 ppm [1, 7] | pest or weed control at 200 ppm (Fusarium culmorum [6]) | inhibition of growth at 20 ppm [4] | inhibition of growth at 20 ppm (Fusarium culmorum [2]) | inhibition of growth at 20 ppm [3, 7]

CCCC(C)CC(C)NC(=O)c1cnc2c(F)cccc2c1 (stereo not shown) [E-51]
≥ 80%: inhibition of growth at 20 ppm [1, 7] | inhibition of growth at 20 ppm [4] | inhibition of growth at 20 ppm (Fusarium culmorum [2]) | inhibition of growth at 20 ppm [3, 7]

CCCCCC(C)(C)NC(=O)c1cnc2c(F)cccc2c1 [E-1]
≥ 80%: inhibition of growth at 20 ppm [1] | inhibition of growth at 20 ppm (Fusarium culmorum [2]) | inhibition of growth at 20 ppm [3]

C/C(=C/c1ccccc1)CC(C)(C)NC(=O)c1cnc2c(F)cccc2c1 [E-31]
≥ 80%: inhibition of growth at 20 ppm [4] | inhibition of growth at 20 ppm [3, 7]
127 to 129 °C: melting point

CC(CC1CC1)(CC1CC1)NC(=O)c1cnc2c(F)cccc2c1 [E-17]
96 to 98 °C: melting point
≥ 80%: inhibition of growth at 20 ppm [5] | inhibition of growth at 20 ppm [1, 7] | pest or weed control at 200 ppm (Fusarium culmorum [6]) | inhibition of growth at 20 ppm [4] | inhibition of growth at 20 ppm (Fusarium culmorum [2]) | inhibition of growth at 20 ppm [3, 7]

O=C(NC(CC1CC1)CC1CC1)c1cnc2ccccc2c1 [E-29]
123 to 125 °C: melting point
≥ 80%: inhibition of growth at 20 ppm [1, 7] | inhibition of growth at 20 ppm (Fusarium culmorum [2]) | inhibition of growth at 20 ppm [3, 7]

CC1(CC(C)(CC(F)(F)F)NC(=O)c2cnc3c(F)cccc3c2)CC1 (stereo not shown) [E-10, 8-fluoro-N-[3,3,3-trifluoro-1-methyl-1-[(1-methylcyclopropyl)methyl]propyl]quinoline-3-carboxamide]
126 to 128 °C: melting point
≥ 80%: inhibition of growth at 20 ppm [5] | inhibition of growth at 20 ppm [1, 7] | inhibition of growth at 20 ppm [4] | inhibition of growth at 20 ppm (Fusarium culmorum [2]) | inhibition of growth at 20 ppm [3, 7]

O=C(NC(CC1CC1)CC1CC1)c1cnc2c(F)cccc2c1 [E-24]
≥ 80%: inhibition of growth at 20 ppm [5] | inhibition of growth at 20 ppm [1, 7] | inhibition of growth at 20 ppm (Fusarium culmorum [2]) | inhibition of growth at 20 ppm [3, 7]
141 to 143 °C: melting point

CC(C)=C(C)CC(C)(CC(C)C)NC(=O)c1cnc2c(F)cccc2c1 (stereo not shown) [E-15]
≥ 80%: inhibition of growth at 20 ppm [5] | inhibition of growth at 20 ppm [1, 7] | inhibition of growth at 20 ppm [4] | inhibition of growth at 20 ppm (Fusarium culmorum [2]) | inhibition of growth at 20 ppm [3, 7]

C/C(=C/c1ccccc1)CC(C)(C)NC(=O)c1cnc2c(F)cccc2c1C [E-28]
≥ 80%: inhibition of growth at 20 ppm (Fusarium culmorum [2]) | inhibition of growth at 20 ppm [3, 7]
96 to 98 °C: melting point

CCC(CC)CC(C)(CC(F)(F)F)NC(=O)c1cnc2ccccc2c1 (stereo not shown) [E-43]
93 to 95 °C: melting point
≥ 80%: inhibition of growth at 20 ppm [5] | inhibition of growth at 20 ppm [1, 7] | pest or weed control at 200 ppm (Fusarium culmorum [6]) | inhibition of growth at 20 ppm (Fusarium culmorum [2]) | inhibition of growth at 20 ppm [3, 7]

CCC(CC)CC(C)(CC(F)(F)F)NC(=O)c1cnc2c(C)cccc2c1 (stereo not shown) [E-44]
≥ 80%: inhibition of growth at 20 ppm [5] | inhibition of growth at 20 ppm [1, 7] | inhibition of growth at 20 ppm [4] | inhibition of growth at 20 ppm (Fusarium culmorum [2]) | inhibition of growth at 20 ppm [3, 7]

CC(C)CC(C)CC(C)(C)NC(=O)c1cnc2c(F)cccc2c1 (stereo not shown) [E-22]
≥ 80%: inhibition of growth at 20 ppm [5] | inhibition of growth at 20 ppm [1, 7] | inhibition of growth at 20 ppm [4] | inhibition of growth at 20 ppm (Fusarium culmorum [2]) | inhibition of growth at 20 ppm [3, 7]

CC(CC1CC=CCC1)(CC(F)(F)F)NC(=O)c1cnc2ccccc2c1 (stereo not shown) [E-55]
≥ 80%: inhibition of growth at 20 ppm [5] | inhibition of growth at 20 ppm [1, 7] | pest or weed control at 200 ppm (Fusarium culmorum [6]) | inhibition of growth at 20 ppm [4] | inhibition of growth at 20 ppm (Fusarium culmorum [2]) | inhibition of growth at 20 ppm [3, 7]
90 to 95 °C: melting point

CC(C)=CCC(C)(CC(C)C)NC(=O)c1cnc2ccccc2c1 (stereo not shown) [E-13]
≥ 80%: inhibition of growth at 20 ppm [5] | inhibition of growth at 20 ppm [1, 7] | inhibition of growth at 20 ppm [4] | inhibition of growth at 20 ppm (Fusarium culmorum [2]) | inhibition of growth at 20 ppm [3, 7]

C=C(C)CC(COC)(CC(=C)C)NC(=O)c1cnc2c(F)cccc2c1 [E-20]
97 to 100 °C: melting point
≥ 80%: inhibition of growth at 20 ppm [5] | inhibition of growth at 20 ppm [1, 7] | pest or weed control at 200 ppm (Fusarium culmorum [6]) | inhibition of growth at 20 ppm [4] | inhibition of growth at 20 ppm (Fusarium culmorum [2]) | inhibition of growth at 20 ppm [3, 7]

CC(Cc1ccccc1)C(C)(C)NC(=O)c1cnc2c(F)cccc2c1 (stereo not shown) [E-16]
≥ 80%: inhibition of growth at 20 ppm [1, 7] | pest or weed control at 200 ppm (Fusarium culmorum [6]) | inhibition of growth at 20 ppm [4] | inhibition of growth at 20 ppm (Fusarium culmorum [2]) | inhibition of growth at 20 ppm [3, 7]

CC(CC1CC=CCC1)NC(=O)c1cnc2ccccc2c1 (stereo not shown) [E-49]
≥ 80%: inhibition of growth at 20 ppm [1, 7] | inhibition of growth at 20 ppm (Fusarium culmorum [2]) | inhibition of growth at 20 ppm [3, 7]

CC(C)=CCC(C)(CC(C)C)NC(=O)c1cnc2c(F)cccc2c1 (stereo not shown) [E-11]
≥ 80%: inhibition of growth at 20 ppm [5] | inhibition of growth at 20 ppm [1, 7] | inhibition of growth at 20 ppm [4] | inhibition of growth at 20 ppm (Fusarium culmorum [2]) | inhibition of growth at 20 ppm [3, 7]
94 to 96 °C: melting point

Cc1cccc2cc(C(=O)NC(C)CC3CC=CCC3)cnc12 (stereo not shown) [E-50]
≥ 80%: inhibition of growth at 20 ppm [1, 7] | pest or weed control at 200 ppm (Fusarium culmorum [6]) | inhibition of growth at 20 ppm [4] | inhibition of growth at 20 ppm (Fusarium culmorum [2]) | inhibition of growth at 20 ppm [3, 7]
